Experimental data as given in patent US20110046210A1, “SUBSTITUTED THIOPENECARBOXAMIDES AS IKK-BETA SERINE-, THREONINE-PROTEIN KINASE INHIBITORS” (CHROMA THERAPEUTICS LTD., priority 2008, published 2011).
Read-outs that look alike come from different tables or passages of the source.

Tests used:
[1] = target: T1, IKBKB (IKK-β) (Homo sapiens, UniProt O14920); test: IKKβ enzyme assay (Z'-LYTE, Invitrogen); format: biochemical
T1 construct: purchased Invitrogen (Paisley, UK)
T1 sequence (O14920 1-756): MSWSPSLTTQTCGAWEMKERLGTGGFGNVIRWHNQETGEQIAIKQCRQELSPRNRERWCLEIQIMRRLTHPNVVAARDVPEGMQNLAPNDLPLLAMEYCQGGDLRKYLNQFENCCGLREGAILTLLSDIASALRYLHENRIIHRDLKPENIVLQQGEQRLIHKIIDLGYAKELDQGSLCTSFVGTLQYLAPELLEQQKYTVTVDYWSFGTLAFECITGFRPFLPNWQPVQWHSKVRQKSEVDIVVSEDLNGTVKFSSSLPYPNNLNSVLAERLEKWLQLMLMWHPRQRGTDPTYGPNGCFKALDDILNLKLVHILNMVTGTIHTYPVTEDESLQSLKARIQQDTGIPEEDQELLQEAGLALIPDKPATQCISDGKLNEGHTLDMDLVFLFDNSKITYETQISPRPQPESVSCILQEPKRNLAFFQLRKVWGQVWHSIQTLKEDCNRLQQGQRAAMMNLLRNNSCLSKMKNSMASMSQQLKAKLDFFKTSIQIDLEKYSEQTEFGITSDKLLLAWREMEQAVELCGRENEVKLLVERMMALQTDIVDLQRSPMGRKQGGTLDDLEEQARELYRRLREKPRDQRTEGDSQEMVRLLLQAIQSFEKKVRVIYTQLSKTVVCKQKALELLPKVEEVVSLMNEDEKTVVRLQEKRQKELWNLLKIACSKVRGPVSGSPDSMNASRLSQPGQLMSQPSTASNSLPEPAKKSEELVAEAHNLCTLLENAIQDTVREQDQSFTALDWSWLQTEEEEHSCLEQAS
Method: The ability of compounds to inhibit IKK-β kinase activity was measured in an assay performed by Invitrogen (Paisley, UK). The Z′-LYTE™ biochemical assay employs a fluorescence-based, coupled-enzyme format and is based on the differential sensitivity of phosphorylated and non-phosphorylated peptides to proteolytic cleavage. The peptide substrate is labelled with two fluorophores—one at each end—that make up a FRET pair. In the primary reaction, the kinase transfers the gamma-phosphate of ATP to a single serine or threonine residue in a synthetic FRET-peptide. In the secondary reaction, a site-specific protease recognizes and cleaves non-phosphorylated FRET-peptides. Phosphorylation of FRET-peptides suppresses cleavage by the Development Reagent. Cleavage disrupts FRET between the donor (i.e. coumarin) and acceptor (i.e. fluorescein) fluorophores on the FRET-peptide, whereas uncleaved, phosphorylated FRET-peptides maintain FRET. A […] method, which calculates the ratio (the Emission Ratio) of donor emission to acceptor emission after excitation of the donor fluorophore at 400 nm, is used to quantitate reaction progress.
The final 10 μL Kinase Reaction consists of 0.9-8.0 ng IKBKB (IKK-β), 2 μM Ser/Thr 05 Peptide and ATP in 50 mM HEPES pH 7.5, 0.01% BRIJ-35, 10 mM MgCl2, 1 mM EGTA. The assay is performed at an ATP concentration at, or close to the Km. After the 60 minute Kinase Reaction incubation at room temperature, 5 μL of a 1:128 dilution of Development Reagent is added. The assay plate is incubated for a further 60 minutes at room temperature and read on a fluorescence plate reader.
Duplicate data points are generated from a ⅓ log dilution series of a stock solution of test compound in DMSO. Nine dilutions steps are made from a top concentration of 10 μM, and a ‘no compound’ blank is included. Data is collected and analysed using XLfit software from IDBS. The dose response curve is curve fitted to model number 205 (sigmoidal dose-response model). From the curve generated, the concentration giving 50% inhibition is determined and reported.

[2] = tested on: human whole blood; test: LPS-stimulation of human whole blood, TNF-α release; format: cell-based
Method: Whole blood was taken by venous puncture using heparinised vacutainers (Becton Dickinson) and diluted in an equal volume of RPMI1640 tissue culture media (Sigma). 100 μl was plated in V-bottomed 96 well tissue culture treated plates. 2 hours after the addition of the inhibitor in 100 μl of RPMI1640 media, the blood was stimulated with LPS (E coli strain 005:B5, Sigma) at a final concentration of 100 ng/ml and incubated at 37° C. in 5% CO2 for 6 hours. TNF-α levels were measured from cell-free supernatants by sandwich ELISA (R&D Systems #QTA00B). Human heparinised blood (17-IU/ml) was diluted with an equal volume of RPMI-1640 and then sub-aliquoted into 96 well microtitre wells (100 µl/well). Inhibitors of IKKβ that had been serially diluted in RPMI-1640 were added to the wells (100 µl/well) to give a range of final concentrations (5-10000 nM). After incubation for 2 hours at 37° C., TNF[…] production was stimulated for 6 hours at 37° C. by the addition of 10 µl of LPS (E Coli 055:B5) to give a final concentration of 100 ng/ml. Plates were then centrifuged for 3 minutes at 800 g and TNF[…] present in the supernatant then measured, using a QuantiGlo Chemiluminescent ELISA (R&D Systems). The human whole blood assay measures the ability of the compounds to inhibit the LPS stimulated production of TNF alpha in human blood cells mediated by IKKβ in a physiologically relevant setting.

[3] = tested on: THP-1 cells; test: LPS-stimulation of THP-1 cells, TNF-α release; format: cell-based; conditions: Homo sapiens, LPS 1 μg/ml, 6 hours, IC50 range, read-out: Inhibitor activity versus THP-1 TNFα release
Method: THP-1 cells were plated in 100 μl at a density of 4×10^4 cells/well in V-bottomed 96 well tissue culture treated plates and incubated at 37° C. in 5% CO2 for 16 hours. 2 hours after the addition of the inhibitor in 100 μl of tissue culture media, the cells were stimulated with LPS (E coli strain 005:B5, Sigma) at a final concentration of 1 μg/ml and incubated at 37° C. in 5% CO2 for 6 hours. TNF-α levels were measured from cell-free supernatants by sandwich ELISA (R&D Systems #QTA00B).

[4] = read-out: Enzyme IC50 (nM) vs IKKβ
[5] = LPS stimulated TNF alpha production, read-out: IC50 in Human whole blood
[6] = ATP at or close to Km, IC50 range, read-out: Inhibitor activity versus IKKβ
[7] = LPS 100 ng/ml, 6 hours, IC50 range, read-out: Inhibitor activity versus human whole blood TNFα release

IC50 [1, 4] [nM]	IC50 [2, 5] [nM]	IC50 [1, 6] [nM]	IC50 [3] [nM]	IC50 [2, 7] [nM]	Compound
5	489				NC(=O)Nc1sc(-c2ccccc2)cc1C(N)=O [Compound I, reference compound]
		< 500			CC(C)(NCc1ccc2cc(-c3cc(C(N)=O)c(NC(N)=O)s3)ccc2c1)C(=O)O [Example 11, N-({6-[4-carbamoyl-5-(carbamoylamino)-2-thienyl]-2-naphthyl}methyl)-2-methylalanine]
		> 1000	< 500	> 1000	CCC(CC)(NCc1cccc(-c2cc(C(N)=O)c(NC(N)=O)s2)c1)C(=O)OC1CCCC1 [Example 4, Cyclopentyl 2-({3-[4-carbamoyl-5-(carbamoylamino)-2-thienyl]benzyl}amino)-2-ethylbutanoate]
		< 500	> 1000	500 to 1000	CC(C)(NCc1ccc(-c2cc(C(N)=O)c(NC(N)=O)s2)cc1)C(=O)OC1CCCC1 [Example 5, Cyclopentyl N-{4-[4-carbamoyl-5-(carbamoylamino)-2-thienyl]benzyl}-2-methylalaninate]
		< 500			CC(C)(NC(=O)c1cccc(-c2cc(C(N)=O)c(NC(N)=O)s2)c1)C(=O)O [Example 9, N-{3-[4-Carbamoyl-5-(carbamoylamino)-2-thienyl]benzoyl}-2-methylalanine]
		< 500	> 1000	> 1000	CC(C)(NC(=O)c1cccc(-c2cc(C(N)=O)c(NC(N)=O)s2)c1)C(=O)OC1CCCC1 [Example 3, Cyclopentyl N-{3-[4-carbamoyl-5-(carbamoylamino)-2-thienyl]benzoyl}-2-methylalaninate]
		< 500			CC(C)(NCCc1cccc(-c2cc(C(N)=O)c(NC(N)=O)s2)c1)C(=O)O [Example 10, N-(2-{3-[4-carbamoyl-5-(carbamoylamino)-2-thienyl]phenyl}ethyl)-2-methylalanine]
132	140	< 500	< 500	< 500	CC(C)(NCc1cccc(-c2cc(C(N)=O)c(NC(N)=O)s2)c1)C(=O)OC1CCCC1 [Example 1, Cyclopentyl N-{3-[4-carbamoyl-5-(carbamoylamino)-2-thienyl]benzyl}-2-methylalaninate]
		< 500	< 500	> 1000	CC(C)(C)OC(=O)C(C)(C)NCc1cccc(-c2cc(C(N)=O)c(NC(N)=O)s2)c1 [Example 2, tert-Butyl N-{3-[4-carbamoyl-5-(carbamoylamino)-2-thienyl]benzyl}-2-methylalaninate]
		> 1000	< 500	> 1000	CC(C)(NCc1ccc2cc(-c3cc(C(N)=O)c(NC(N)=O)s3)ccc2c1)C(=O)OC1CCCC1 [Example 7, Cyclopentyl N-({6-[4-carbamoyl-5-(carbamoylamino)-2-thienyl]-2-naphthyl}methyl)-2-methylalaninate]
		500 to 1000	500 to 1000	< 500	CC(C)(NCCc1cccc(-c2cc(C(N)=O)c(NC(N)=O)s2)c1)C(=O)OC1CCCC1 [Example 6, Cyclopentyl N-(2-{3-[4-carbamoyl-5-(carbamoylamino)-2-thienyl]phenyl}ethyl)-2-methylalaninate]
		< 500			CC(C)(NCc1cccc(-c2cc(C(N)=O)c(NC(N)=O)s2)c1)C(=O)O [Example 8, N-{3-[4-Carbamoyl-5-(carbamoylamino)-2-thienyl]benzyl}-2-methylalanine]
